Assay results from patent US7772252B2, “Heterocyclic substituted carbonyl derivatives and their use as dopamine D3 receptor ligands” (Aventis Pharmaceuticals Inc., priority 2001, dated 2010).

biological target: T1, cloned human dopamine D3 receptors (Homo sapiens, UniProt P35462); experiment: [N-Methyl-3H]Spiroperidol binding to cloned human dopamine D3 receptors; details: read-out: D3 Ki
T1 construct: expressed in transfected cells; membrane homogenate
Description: [N-Methyl-^3H]Spiroperidol Binding to Cloned Human Dopamine D3 Receptors
This assay measures the in vitro activity of compounds on cloned human dopamine (D3) receptors and predicts the direct dopamine-blocking properties of putative neuropsychiatric agents at human dopamine D3 receptors.
The D3 gene was isolated from a human striatal cDNA library (Stratagene). The gene was sequenced and sub-cloned into the expression vector RC/RSV (Invitrogen). CHO (Chinese Hamster Ovary) cells were stably transfected with 10 μg of the D3/RSV plasmid using the DOTAP method from Boehringer Mannheim and 72 clones that were G418 resistant were isolated. Using mRNA and binding displacement data a single high expressing clone was identified. This clone was then grown in large batches for the purpose of developing a 96 well format assay.
• 1. One plate (10 cm) with approximately 2-3 million D3 cells per plate is incubated with 1 ml of Trypsin-EDTA at room temperature for ˜2 min or until cells have lifted off plates. Four ml of Ham's F12+10% Fetal Bovine Serum+1% Penicillin/Streptomycin+G418 (400 μg/ml) medium are added to resuspend cells and 1 ml of this is added to each large plate (15 cm) containing 19 ml of the same medium as mentioned above. • 2. The 5 large plates are incubated at 37° C.+5% CO2 for ˜3 days or until the cells are confluent. • 3. After these plates are confluent, they are split into 10 large plates. Medium is aspirated off, 2 ml of Trypsin-EDTA are added to each plate and plates are incubated at RT for 2 min or until cells have lifted off the plate. Eight ml of the F12 medium (same medium as #1 above) are added to each plate (10 ml total) to resuspend the cells and 5 ml are transferred to the 2 new plates containing 15 ml of the F12 media. • 4. The 10 large plates are incubated at 37° C.+5% CO2 for ˜2 days or until the cells are confluent. • 5. The 10 large plates are split into 60 large plates (using Trypsin-EDTA as #3 except 4 ml of F12 medium are added to resuspend cells and 1 ml is aliquoted to 6 new plates containing 19 ml of F12 medium each). • 6. Plates are incubated at 37° C.+5% CO2 for ˜3 days or until cell are confluent. • 7. The 60 large plates are then split into 60 roller bottles (100-150 million cells/bottle). Medium is aspirated off, 2 ml of Trypsin-EDTA are added to each plate and incubated at RT for ˜2 minutes or until cells have lifted off plates. Eight ml of F12 medium are added to each plate to resuspend cells and the entire 10 ml are added to 1 roller bottle containing 90 ml of the F12 medium. • 8. The 60 roller bottles are immediately placed on their sides and transferred to the roller bottle incubator. They are incubated at 37° C.+5% CO2 for ˜3-5 days. Cells are spun at 30-40% motor speed in the Form a incubator. • 9. Medium is poured off and cells are washed 2× in PBS. • 10. Cells are then scraped off in 20 ml of PBS and the bottles are rinsed again with 5 ml of PBS to remove any remaining cells. Cells are stored on ice before membrane preparation. • 11. The yield for 60 D3 roller bottles has varied from ˜260-500 mg. • Note: All tissue culture reagents are from Gibco-BRL. C. Membrane Preparation
The cells are harvested into 250 ml centrifuge tubes with 100 volumes of cold phosphate buffered saline (PBS) and spun down (1200×G for 10 min at 4° C.). The medium is removed and 100 ml PBS are added to each centrifuge tube, cells are resuspened and spun down again. The PBS is removed and the final pellet is homogenized in an appropriate volume of 10% DMSO with a polytron on ice at a medium setting.
A 200 μl sample membrane homogenate is added to 200 μl of 1% SDS, vortexed and allowed to stand for 5 min. Aliquots (25, 50 and 100 μl) of this mixture are assayed in duplicate following the standard Bio-Rad DC protein assay protocol (kit catalog number 500-0112) and using reagent S. Absorbance readings are made at 750 nm (note: the most accurate protein OD readings are between 0.1-0.5 units). […]

T1 sequence (P35462 whole entry): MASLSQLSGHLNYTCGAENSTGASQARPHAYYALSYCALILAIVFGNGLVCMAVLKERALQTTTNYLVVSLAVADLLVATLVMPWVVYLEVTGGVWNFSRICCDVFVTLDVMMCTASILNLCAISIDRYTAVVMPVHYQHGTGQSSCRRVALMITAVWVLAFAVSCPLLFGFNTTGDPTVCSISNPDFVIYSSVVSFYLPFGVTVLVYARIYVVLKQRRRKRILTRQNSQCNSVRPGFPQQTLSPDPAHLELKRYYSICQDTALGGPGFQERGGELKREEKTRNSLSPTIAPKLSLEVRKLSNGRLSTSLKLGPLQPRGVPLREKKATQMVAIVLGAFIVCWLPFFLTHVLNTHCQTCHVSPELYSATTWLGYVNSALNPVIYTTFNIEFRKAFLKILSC

Row | Structure (SMILES) | Ki
1 | Cc1ccc(CCNC(=O)C2CC2CN2CCC(c3noc4ccsc34)CC2)cc1 (racemic) [compound 831803] | 7.44 nM
2 | COc1cccc(CCNC(=O)C2CC2CN2CCC(c3noc4ccsc34)CC2)c1 (racemic) [compound 831804] | 9.89 nM
3 | COc1ccccc1CCNC(=O)C1CC1CN1CCC(c2noc3ccsc23)CC1 (racemic) [compound 831805] | 10.2 nM
4 | COc1cccc(C(=O)NNC(=O)C2CC2CN2CCC(c3noc4ccsc34)CC2)c1 (racemic) [compound 831811] | 819 nM
5 | O=C(NC1CCN(Cc2cc(Cl)cc(Cl)c2)CC1)C1CC1CN1CCC(c2noc3ccsc23)CC1 (racemic) [compound 831819] | 0.1 nM
6 | O=C(NC1CCN(Cc2ccc(Oc3ccccc3)cc2)CC1)C1CC1CN1CCC(c2noc3ccsc23)CC1 (racemic) [compound 831820] | 6.54 nM
7 | O=C(C1CC1CN1CCC(c2noc3ccsc23)CC1)N1CCN(S(=O)(=O)c2ccc(-c3ccccc3)cc2)CC1 (racemic) [compound 831836] | 94.3 nM
8 | O=C(C1CC1CN1CCC(c2noc3ccsc23)CC1)N1CCN(S(=O)(=O)C=Cc2ccccc2)CC1 (racemic) [compound 831838] | 141 nM
9 | Cc1ccc(CN2CCC(NC(=O)C3CC3CN3CCC(c4noc5ccsc45)CC3)CC2)cc1 (racemic) [compound 831992] | 4.81 nM
10 | O=C(NC1CCN(Cc2ccc(F)cc2)CC1)C1CC1CN1CCC(c2noc3ccsc23)CC1 (racemic) [compound 831993] | 2.51 nM
11 | O=C(NC1CCN(Cc2cccc(F)c2)CC1)C1CC1CN1CCC(c2noc3ccsc23)CC1 (racemic) [compound 831994] | 2.68 nM
12 | O=C(NC1CCN(Cc2ccc(Cl)cc2)CC1)C1CC1CN1CCC(c2noc3ccsc23)CC1 (racemic) [compound 831997] | 3.55 nM
13 | O=C(NC1CCN(Cc2ccc(Cl)c(Cl)c2)CC1)C1CC1CN1CCC(c2noc3ccsc23)CC1 (racemic) [compound 831998] | 7.46 nM
14 | O=C(C1CC1CN1CCC(c2noc3ccsc23)CC1)N1CCN(CCc2ccncc2)CC1 (racemic) [compound 832000] | 79.6 nM

More lines, in order of falling Ki, values ahead:

Row | Ki | Structure (SMILES)
15 | 491 nM | O=C(C1CC1CN1CCC(c2noc3ccsc23)CC1)N1CCN(S(=O)(=O)Cc2ccccc2)CC1 (racemic) [compound 831837]
16 | 473 nM | O=C(C1CC1CN1CCC(c2noc3ccsc23)CC1)N1CCN(Cc2ccncc2)CC1 (racemic) [compound 831999]
17 | 453 nM | O=C(NNC(=O)C1CC1CN1CCC(c2noc3ccsc23)CC1)c1ccc(Cl)cc1 (racemic) [compound 831812]
18 | 234 nM | O=C(C1CC1CN1CCC(c2noc3ccsc23)CC1)N1CCN(S(=O)(=O)c2ccccc2)CC1 (racemic) [compound 831835]
19 | 24.1 nM | O=C(NC1CCN(Cc2c(Cl)cccc2Cl)CC1)C1CC1CN1CCC(c2noc3ccsc23)CC1 (racemic) [compound 831821]
20 | 13.4 nM | O=C(NCCc1ccc(F)cc1)C1CC1CN1CCC(c2noc3ccsc23)CC1 (racemic) [compound 831802]
21 | 11.2 nM | O=C(NCCc1cccc(F)c1)C1CC1CN1CCC(c2noc3ccsc23)CC1 (racemic) [compound 831801]
22 | 7.97 nM | O=C(NC1CCN(Cc2ccccc2Cl)CC1)C1CC1CN1CCC(c2noc3ccsc23)CC1 (racemic) [compound 831996]
23 | 6.31 nM | O=C(NC1CCN(Cc2cccc(C(F)(F)F)c2)CC1)C1CC1CN1CCC(c2noc3ccsc23)CC1 (racemic) [compound 831831]
24 | 5 nM | O=C(NCCc1ccc(Cl)cc1)C1CC1CN1CCC(c2noc3ccsc23)CC1 (racemic) [compound 831800]
25 | 4.73 nM | O=C(NC1CCN(Cc2cccc(Cl)c2)CC1)C1CC1CN1CCC(c2noc3ccsc23)CC1 (racemic) [compound 831995]
26 | 1.38 nM | O=C(NC1CCN(Cc2cccc3ccccc23)CC1)C1CC1CN1CCC(c2noc3ccsc23)CC1 (racemic) [compound 831822]
27 | 0.117 nM | O=C(NC1CCN(Cc2ccc3ccccc3c2)CC1)C1CC1CN1CCC(c2noc3ccsc23)CC1 (racemic) [compound 831818]
